Reference: patent US7709484B1, “Substituted melanocortin receptor-specific piperazine compounds” (Palatin Technologies, Inc., priority 2004, dated 2010)

Experiments:
[1] = target: hMC1-R (Homo sapiens, UniProt Q01726); assay: Competitive inhibition binding assay, 125I-NDP-α-MSH, hMC1-R membranes; conditions: 1 μM test compound; 0.4 nM 125I-NDP-α-MSH; mean of triplicate; results less than 0% reported as 0%; read-out: Inhibition at 1 μM MC1-R (human)
Protocol: (§1) Competitive inhibition assay. A competitive inhibition binding assay was conducted using membranes prepared from hMC1-R or B-16 mouse melanoma cells (containing MC1-R), hMC3-R, hMC4-R, and hMC5-R, and using 0.4 nM ^125I-NDP-α-MSH (New England Nuclear, Boston, Mass., USA) in 50 mM HEPES buffer containing 1 mM MgCl2, 2 mM CaCl2, and 5 mM KCl, at pH 7.2. The assay tube also contained a chosen concentration of the test compound of this invention, typically a 1 μM concentration, for determining its efficacy in inhibiting the binding of ^125I-NDP-α-MSH to its receptor. Non-specific binding was measured by complete inhibition of binding of ^125I-NDP-α-MSH in the assay with the presence of 1 μM α-MSH.
(§2) Incubation was for 90 minutes at room temperature, after which the assay mixture was filtered and the membranes washed three times with ice cold buffer. The filter was dried and counted in a gamma counter for remaining radioactivity bound to the membranes. 100% specific binding was defined as the difference in radioactivity (cpm) bound to cell membranes in the absence and presence of 1 μM α-MSH. The cpm obtained in the presence of test compounds are normalized with respect to 100% specific binding to determine the percent inhibition of ^125I-NDP-a-MSH binding. Each assay was conducted in triplicate and the actual mean values are described, with results less than 0% reported as 0%.

[2] = target: hMC3-R (Homo sapiens, UniProt P41968); assay: Competitive inhibition binding assay, 125I-NDP-α-MSH, hMC3-R membranes; conditions: 1 μM test compound; 0.4 nM 125I-NDP-α-MSH; mean of triplicate; results less than 0% reported as 0%; read-out: Inhibition at 1 μM MC3-R
Protocol: as §1, §2

[3] = target: hMC4-R (Homo sapiens, UniProt P32245); assay: Competitive inhibition binding assay, 125I-NDP-α-MSH, hMC4-R membranes; conditions: 1 μM test compound; 0.4 nM 125I-NDP-α-MSH; mean of triplicate; results less than 0% reported as 0%; read-out: Inhibition at 1 μM MC4-R
Protocol: as §1, §2

[4] = target: hMC5-R (Homo sapiens, UniProt P33032); assay: Competitive inhibition binding assay, 125I-NDP-α-MSH, hMC5-R membranes; conditions: 1 μM test compound; 0.4 nM 125I-NDP-α-MSH; mean of triplicate; results less than 0% reported as 0%; read-out: Inhibition at 1 μM MC5-R
Protocol: as §1, §2

[5] = target: T1, B-16 mouse melanoma cells (containing MC1-R) (Mus musculus, UniProt Q01727); assay: Competitive inhibition binding assay, 125I-NDP-α-MSH, B-16 mouse melanoma cell membranes; conditions: 1 μM test compound; 0.4 nM 125I-NDP-α-MSH; mean of triplicate; results less than 0% reported as 0%; read-out: Inhibition at 1 μM MC1-R (murine)
T1 construct: B-16 mouse melanoma cells (containing MC1-R); endogenous in cells; host or cells: B-16 mouse melanoma cells
Protocol: as §1, §2

hMC5-R, sequence (P33032 whole entry): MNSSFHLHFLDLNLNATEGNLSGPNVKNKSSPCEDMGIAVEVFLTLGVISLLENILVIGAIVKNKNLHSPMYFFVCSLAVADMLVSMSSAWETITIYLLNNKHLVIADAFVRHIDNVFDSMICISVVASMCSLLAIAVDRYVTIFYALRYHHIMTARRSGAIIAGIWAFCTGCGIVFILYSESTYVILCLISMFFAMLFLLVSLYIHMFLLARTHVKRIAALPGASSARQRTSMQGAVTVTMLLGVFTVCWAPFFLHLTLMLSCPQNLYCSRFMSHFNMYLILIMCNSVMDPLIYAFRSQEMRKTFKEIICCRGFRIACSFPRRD
hMC1-R, sequence (Q01726 whole entry): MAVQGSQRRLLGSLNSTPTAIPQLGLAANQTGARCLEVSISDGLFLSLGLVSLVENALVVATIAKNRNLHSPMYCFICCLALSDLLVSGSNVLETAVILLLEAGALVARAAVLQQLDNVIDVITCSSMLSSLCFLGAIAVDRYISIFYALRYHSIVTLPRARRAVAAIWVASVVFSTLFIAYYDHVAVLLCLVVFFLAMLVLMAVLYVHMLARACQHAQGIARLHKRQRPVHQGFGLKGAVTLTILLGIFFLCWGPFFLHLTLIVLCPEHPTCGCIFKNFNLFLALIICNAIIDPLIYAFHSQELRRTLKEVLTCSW
hMC4-R, sequence (P32245 whole entry): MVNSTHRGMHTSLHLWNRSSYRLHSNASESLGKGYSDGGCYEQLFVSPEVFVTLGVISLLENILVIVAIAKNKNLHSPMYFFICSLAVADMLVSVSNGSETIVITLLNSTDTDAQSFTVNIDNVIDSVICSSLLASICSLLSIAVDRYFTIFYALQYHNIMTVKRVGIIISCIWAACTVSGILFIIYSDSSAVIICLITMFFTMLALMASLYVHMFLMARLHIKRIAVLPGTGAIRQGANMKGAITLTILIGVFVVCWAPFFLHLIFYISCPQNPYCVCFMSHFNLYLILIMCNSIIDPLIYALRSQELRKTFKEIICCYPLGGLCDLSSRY
hMC3-R, sequence (P41968 whole entry): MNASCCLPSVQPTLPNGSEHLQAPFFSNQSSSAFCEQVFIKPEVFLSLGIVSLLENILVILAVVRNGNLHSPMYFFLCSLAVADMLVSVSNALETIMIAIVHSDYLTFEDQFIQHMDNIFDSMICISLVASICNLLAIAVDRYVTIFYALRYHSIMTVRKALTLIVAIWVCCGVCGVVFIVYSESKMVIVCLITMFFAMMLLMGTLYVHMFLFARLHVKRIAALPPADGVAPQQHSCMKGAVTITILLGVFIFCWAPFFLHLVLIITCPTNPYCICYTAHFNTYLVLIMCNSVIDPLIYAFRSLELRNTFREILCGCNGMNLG
T1 sequence (Q01727 whole entry): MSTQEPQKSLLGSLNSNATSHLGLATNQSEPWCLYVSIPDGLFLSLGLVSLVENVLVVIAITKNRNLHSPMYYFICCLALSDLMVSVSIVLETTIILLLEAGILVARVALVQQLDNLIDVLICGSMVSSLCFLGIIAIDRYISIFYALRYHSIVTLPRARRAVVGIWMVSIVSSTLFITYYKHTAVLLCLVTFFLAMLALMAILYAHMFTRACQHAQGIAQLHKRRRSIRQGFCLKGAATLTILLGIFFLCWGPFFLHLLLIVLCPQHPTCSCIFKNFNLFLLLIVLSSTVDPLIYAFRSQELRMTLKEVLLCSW

SMILES	inhibition at 1 µM [1] [%]	inhibition at 1 µM [2] [%]	inhibition at 1 µM [3] [%]	inhibition at 1 µM [4] [%]	inhibition at 1 µM [5] [%]
N[C@H](Cc1ccc(Cl)cc1Cl)C(=O)N1C[C@H](Cc2ccccc2)NC[C@H]1Cc1ccc2ccccc2c1 [Example 5, (R)-2-Amino-1-((2R,5S)-5-benzyl-2-naphthalen-2-ylmethyl-piperazin-1-yl)-3-(2,4-dichloro-phenyl)-propan-1-one]	0	12	34	22	–
N[C@H](Cc1ccccc1)C(=O)N1C[C@@H](Cc2ccc3ccccc3c2)NC[C@@H]1Cc1ccccc1 [Example 7, (R)-2-Amino-1-((2S,5R)-2-benzyl-5-naphthalen-2-ylmethyl-piperazin-1-yl)-3-phenyl-propan-1-oneylamino-3-phenyl-propan-1-one]	17	9	16	13	0
N[C@@H](Cc1ccccc1)C(=O)N1C[C@H](Cc2ccccc2)NC[C@H]1Cc1ccc2ccccc2c1 [Example 4, (S)-2-Amino-1-((2R,5S)-5-benzyl-2-naphthalen-2-ylmethyl-piperazin-1-yl)-3-phenyl-propan-1-one]	6	13	25	11	–
N[C@H](Cc1ccc2ccccc2c1)C(=O)N1C[C@H](Cc2ccccc2)NC[C@H]1Cc1ccc2ccccc2c1 [Example 3, (R)-2-Amino-1-((2R,5S)-5-benzyl-2-naphthalen-2-ylmethyl-piperazin-1-yl)-3-naphthalen-2-yl-propan-1-one]	10	19	39	21	–
N[C@H](Cc1ccccc1)C(=O)N1C[C@H](Cc2ccccc2)NC[C@H]1Cc1ccccc1 [Example 6, (R)-2-Amino-1-((2R,5S)-2,5-dibenzyl-piperazin-1-yl)-3-phenyl-propan-1-one]	0	12	4	13	0
N[C@H](Cc1ccccc1)C(=O)N1C[C@H](Cc2ccccc2)NC[C@H]1Cc1ccc2ccccc2c1 [Example 1, (R)-2-Amino-1-((2R,5S)-5-benzyl-2-naphthalen-2-ylmethyl-piperazin-1-yl)-3 phenyl-propan-1-one]	0	14	33	8	–
O=C(CCc1ccc(Cl)cc1Cl)N1C[C@H](Cc2ccccc2)NC[C@H]1Cc1ccc2ccccc2c1 [Example 2, 1-((2R,5S)-5-Benzyl-2-naphthalen-2-ylmethyl-piperazin-1-yl)-3-(2,4-dichloro-phenyl)-propan-1-one]	9	9	18	6	–
